Test: In vivo oral pharmacokinetics in mice
Settings: c57BL/6 male mice; for AUC 0-inf / CL/F / Cmax / Tmax / t1/2: 20 mg/kg gavage, in water; for oral bioavailability: water as vehicle
Procedure: The main pharmacokinetic parameters of 4-PhDMA, pANDMA, and pANDMA mesylate were evaluated in c57BL/6 male mice, using water as dispersing vehicle.
All experimental procedures involving animals were conducted in accordance with the 3R principle to minimize their pain and discomfort. […] For the PK analysis, C57Bl6 male mice (n = 3 per time point) were gavaged with selected compounds (20 mg/kg), suspended in water, or dissolved in SEDDS formulations, after an overnight fast. […] 8.0 software (GraphPad Software Inc., San Diego, CA, USA), when appropriate. If not otherwise stated, the PK data are expressed as mean ± SD. p < 0.05 was considered statistically significant.
The TMA analogs were extracted and analyzed from mouse plasma as already reported. Briefly, 100 µL of plasma were treated with 300 µL of cold acetonitrile spiked with 80 nM of internal standard (IS, 6,4′-dimethylangelicin), and then the samples were centrifuged for 10 min at 12,000× g (Hettich Mikro 120 Benchtop Centrifuge) and 25 °C. Ten microliters of the supernatant were injected into the UHPLC system.
The analytical column was a Kinetex 2.6 μm C18 Polar, 100 A, 100 × 2.1 mm (Phenomenex, Bologna, Italy), thermostated at 30 °C. The mobile phase components A and B were water and methanol, respectively, both containing 10 mM ammonium formate. The eluent flow rate was 0.25 mL/min. […] MS data were analyzed using the Mass Hunter Qualitative Analysis software (Agilent Technologies, Palo Alto, CA, USA).
Chromatographic peaks of the TMA analog were identified and integrated by considering the Extracted Ion Chromatogram (EIC) of the [M+H]^+ species selected with a window of 5 ppm and normalized by the IS. Quantification of TMA analogs was carried out by external calibration of normalized signals using a seven-point calibration curve obtained by spiking blank plasma with each TMA analog in the range of 20–3000 nM.

SMILES | AUC 0-inf [µM·h] | CL/F [mL/h/g] | Cmax [nM] | Tmax [h] | t1/2 [h] | oral bioavailability | Cmax (20 mg/kg) [nM]
Cc1cc2c(-c3ccccc3)cc(=O)oc2c2c(C)coc12 [4-PhDMA] | 2.74736 ± 0.51361 | 0.0014 ± 0.0014 | 222 ± 184 | 1.25 ± 1.06 | 21.13 ± 0.98 | very low | 
Cc1cc(=O)oc2c1cc(-c1ccc(N)cc1)c1occ(C)c12 [pANDMA] | 2.4054 ± 0.2082 | 0.0083 ± 0.0007 |  | 0.5 ± 0 | 1.91 ± 0.71 | very low | 1520 ± 261
